Reference: ChEMBL document CHEMBL1157443, “Synthesis and in vitro anti-hepatitis B virus activities of 4-aryl-6-chloro-quinolin-2-one and 5-aryl-7-chloro-1,4-benzodiazepine derivatives” (Bioorg Med Chem Lett, 2008)

Experiments:
[1] = system: Hepatitis B virus; experiment: Antiviral activity against hepatitis B virus infected Hep G2.2.15 cells assessed as inhibition of HBsAg secretion; type: functional, organism-based; conditions: HepG2 2.2.15
[2] = Cytotoxicity against human Hep G2.2.15 cells; type: cell-based, HepG2 2.2.15
[3] = Selectivity index, ratio of CC50 for human Hep G2.2.15 cells to IC50 for HBV e antigen secretion; type: functional
[4] = Selectivity index, ratio of CC50 for human Hep G2.2.15 cells to IC50 for HBV surface antigen secretion; type: functional
[5] = system: Hepatitis B virus; experiment: Antiviral activity against hepatitis B virus infected Hep G2.2.15 cells assessed as inhibition of HBeAg secretion; type: functional, organism-based; conditions: HepG2 2.2.15

Compound | IC50 [1] [µM] | CC50 [2] [µM] | Ratio CC50/IC50 [3] | Ratio CC50/IC50 [4] | IC50 [5] [µM]
CC(=O)OC1N=C(c2ccccc2)c2cc(Cl)ccc2NC1=O (stereo not given) | 292 | 678 | <1 | 2.3 | > 4260
CC(=O)Nc1c(-c2ccccc2F)c2cc(Cl)ccc2[nH]c1=O | 141 | 44 | <1 | <1 | 79
O=c1cc(-c2ccccc2)c2cc(Cl)ccc2[nH]1 | 485 | 1250 | <1 | 2.6 | > 4140
O=c1[nH]c2ccc(Cl)cc2c(-c2ccccc2F)c1CCO | 187 | > 2990 | >5.5 | >16 | 545
O=c1[nH]c2ccc(Cl)cc2c(-c2ccccc2Cl)c1CCO | 74 | 1720 | 3.4 | 23 | 449
O=c1cc(-c2ccccc2Cl)c2cc(Cl)ccc2[nH]1 | 752 | 6000 | <1 | 8 | > 6000
O=c1cc(-c2ccccc2F)c2cc(Cl)ccc2[nH]1 | 2840 | > 5460 | >2.4 | >1.9 | 2220
CC(=O)OC1N=C(c2ccccc2F)c2cc(Cl)ccc2NC1=O (stereo not given) | 160 | 344 | <1 | 2.2 | 1220
Nc1c(-c2ccccc2)c2cc(Cl)ccc2[nH]c1=O | 67 | 399 | <1 | 6 | > 3990
Nc1c(-c2ccccc2F)c2cc(Cl)ccc2[nH]c1=O | 56 | 767 | <1 | 14 | > 3610
CC(=O)Nc1c(-c2ccccc2)c2cc(Cl)ccc2[nH]c1=O | 208 | 239 | <1 | 1.1 | 1870
Nc1c(-c2ccccc2Cl)c2cc(Cl)ccc2[nH]c1=O | 341 | 341 | <1 | 1 | > 5470
O=C1CN2OC2(c2ccccc2)c2cc(Cl)ccc2N1 (stereo not given) | 728 | 946 | <1 | 1.3 | > 3280
O=C1CN2OC2(c2ccccc2F)c2cc(Cl)ccc2N1 (stereo not given) | 195 | 346 | <1 | 1.8 | > 3260
CC(=O)OC1N=C(c2ccccc2Cl)c2cc(Cl)ccc2NC1=O (stereo not given) | 167 | 154 | <1 | <1 | 1940
O=c1[nH]c2ccc(Cl)cc2c(-c2ccccc2)c1CCO | 300 | > 4910 | >5.2 | >16 | 950
CC(=O)Nc1c(-c2ccccc2Cl)c2cc(Cl)ccc2[nH]c1=O | 129 | 208 | 2.6 | 1.6 | 80
O=C1CN2OC2(c2ccccc2Cl)c2cc(Cl)ccc2N1 (stereo not given) | 355 | 302 | <1 | <1 | 4490
O=C1CN=C(c2ccccc2F)c2cc(Cl)ccc2N1 | 294 | 183 | <1 | <1 | 5360
O=C1CN=C(c2ccccc2Cl)c2cc(Cl)ccc2N1 [DELORAZEPAM] | 76 | 76 | <1 | <1 | 4080
Nc1ccn([C@@H]2CS[C@H](CO)O2)c(=O)n1 [LAMIVUDINE] |  | 30000 | 1.2 | 2.6 | 
O=C1CN=C(c2ccccc2)c2cc(Cl)ccc2N1 [NORDAZEPAM] | 255 |  |  |  | 835
